Active and inactive are the calls of the source. No cut-off for these calls is given here.
Experiments:
A549 = experiment: Cytotoxicity against human A549 cells assessed as inhibition of cell growth incubated for 72 hrs by CCK-8 assay; format: functional, cell-based; settings: A549, 72 h
Caco-2 = experiment: Cytotoxicity against human Caco-2 cells assessed as inhibition of cell growth incubated for 72 hrs by CCK-8 assay; format: functional, cell-based; settings: Caco-2, 72 h
MDA-MB-231 = experiment: Cytotoxicity against human MDA-MB-231 cells assessed as inhibition of cell growth incubated for 72 hrs by CCK-8 assay; format: functional, cell-based; settings: MDA-MB-231, 72 h
HepG2 = experiment: Cytotoxicity against human HepG2 cells assessed as inhibition of cell growth incubated for 72 hrs by CCK-8 assay; format: functional, cell-based; settings: HepG2, 72 h
Escherichia coli = experiment: Antimicrobial activity against Escherichia coli DH5alpha incubated for 24 hrs by absorbance based analysis; format: functional, organism-based
Staphylococcus aureus = experiment: Antimicrobial activity against Staphylococcus aureus ATCC 29213 incubated for 24 hrs by absorbance based analysis; format: functional, organism-based
Aspergillus cristatus = experiment: Antimicrobial activity against Aspergillus cristatus CB10002 incubated for 24 hrs by absorbance based analysis; format: functional, organism-based
Aspergillus flavus = experiment: Antimicrobial activity against Aspergillus flavus AS3.3950 incubated for 24 hrs by absorbance based analysis; format: functional, organism-based
Aspergillus ochraceus = experiment: Antimicrobial activity against Aspergillus ochraceus AS3.3876 incubated for 24 hrs by absorbance based analysis; format: functional, organism-based
Saccharomyces cerevisiae = experiment: Antimicrobial activity against Saccharomyces cerevisiae AS2.399 incubated for 24 hrs by absorbance based analysis; format: functional, organism-based

Row | Compound | IC50 (A549) | IC50 (Caco-2) | IC50 (MDA-MB-231) | IC50 (HepG2) | Activity (Escherichia coli) | Activity (Staphylococcus aureus) | Activity (Aspergillus cristatus) | Activity (Aspergillus flavus) | Activity (Aspergillus ochraceus) | Activity (Saccharomyces cerevisiae)
1 | CCCC/C=C\CCCCCCCC(=O)O [MYRISTOLEIC ACID] | 270 µM | 270 µM | – | – | – | – | – | – | – | –
2 | CCCCCCCCCCCCCC(=O)O [MYRISTIC ACID] | 200 µM | > 1000 µM | – | – | – | – | – | – | – | –
3 | Cc1ccccc1/C=C/CCC(=O)O | 64 µM | > 1000 µM | 190 µM | 740 µM | inactive | inactive | inactive | inactive | inactive | inactive
4 | Cc1ccccc1/C=C/CCCCCCCCCCC(=O)O | 0.35 µM | 4.6 µM | 0.45 µM | 2.2 µM | inactive | inactive | inactive | inactive | inactive | inactive
5 | C=CCCCCCCCCCCC(=O)O | 120 µM | 140 µM | – | – | – | – | – | – | – | –
6 | CCCCCCCCCCCCC(=O)O [TRIDECANOATE] | 250 µM | 280 µM | – | – | – | – | – | – | – | –

From ChEMBL document CHEMBL5325480, “Discovery and Biosynthetic Studies of a Highly Reduced Cinnamoyl Lipid, Tripmycin A, from an Endophytic Streptomyces sp” (J Nat Prod, 2023)
